From patent publication US20090110718A1, “Derivatives of tiacumicin B as anti-cancer agents” (Echem Hightech Co., Ltd., priority 2007, published 2009) come the findings set out here.

What all share (type): cell-based, human
Assay [1] relates to T-47D breast cancer cells. Kind of assay: Cell viability assay (MTT), T-47D. The settings on record: 72 hrs treatment, 1 to 10 μM tested, ± SD, read-out: Observed IC50 for T-47D breast cancer cells. The protocol: Experiments were performed using different cancer cell-lines, which were supplied by the American Type Culture Collection (ATCC), Rockville, Md., USA, and maintained in the recommended culturing media. […] All test samples were dissolved in absolute ethanol and serial diluted to the testing concentrations. For blank sample, absoluted ethanol was used. The final organic solvent content for all cell assays were less than or equal to 0.1%. The cell viability assay was conducted by using the method described by J. Carmichael, et al in Cancer Research 47:936 (1987). All the cells were seeded into 96-well microtitre plates and incubated at 37° C. under 5% CO2 atmosphere. For MCF7, T-47D and WS1, 3000 cells/100 μl/well were used and for HeLa, 1000 cells/100 μl/well were used. […] After additional 72 hours of incubation at 37° C. under 5% CO2 atmosphere, the cell were then collected and evaluated using MTT assay to assess the cell viability by using the method mentioned above. […] Cultures containing 3000 cells per well were treated with 0, 1, 2.5, 5 and 10 μM (final concentration) of the test samples and the viable cells were counted after 72 hrs. […] In both FIG. 1 and FIG. 2, error bars are indicated the estimated standard deviation based on three experiments.

Assay [2] concerns HeLa cervical cancer cells. Kind of assay: Cell viability assay (MTT), HeLa. The settings on record: for IC50: 72 hrs treatment, 1 to 10 μM tested, MTT, ± SD, read-out: Observed IC50 for HeLa cervial cancer cells. How it is done:
(§1) Experiments were performed using different cancer cell-lines, which were supplied by the American Type Culture Collection (ATCC), Rockville, Md., USA, and maintained in the recommended culturing media. The detailed steps and condition for cell culture are described as the following: HeLa, humen cervical adenocarcinoma: Minimum essential medium (Eagle) with 2 mM L-glutamine and Earle's BSS adjusted to contain 1.5 g/L sodium bicarbonate, 0.1 mM non-essential amino acids and 1.0 mM sodium pyruvate and supplemented with 0.01 mg/ml insulin, 90%; fetal bovine serum, 10%. […] All test samples were dissolved in absolute ethanol and serial diluted to the testing concentrations. For blank sample, absoluted ethanol was used. The final organic solvent content for all cell assays were less than or equal to 0.1%. The cell viability assay was conducted by using the method described by J. Carmichael, et al in Cancer Research 47:936 (1987). All the cells were seeded into 96-well microtitre plates and incubated at 37° C. under 5% CO2 atmosphere. For MCF7, T-47D and WS1, 3000 cells/100 μl/well were used and for HeLa, 1000 cells/100 μl/well were used. […] After additional 72 hours of incubation at 37° C. under 5% CO2 atmosphere, the cell were then collected and evaluated using MTT assay to assess the cell viability by using the method mentioned above. Error bars are indicated the estimated standard deviation based on three experiments.

The subject of the next assay is MCF7 breast cancer cells. Kind of assay: Cell viability assay (MTT), MCF7. The settings on record: for IC50: 72 hrs treatment, 1 to 10 μM tested, MTT, ± SD, read-out: Observed IC50 for MCF7 breast cancer cells. The protocol:
as §1, with “MCF7, human breast” for “HeLa, humen cervical”, “[…] Cultures containing 3000 cells per well were treated with 0, 1, 2.5, 5 and 10 μM (final concentration) of the test samples and the viable cells were counted after 72 hrs. […] In both FIG. 1 and FIG. 2, error” for “Error”

As to `CCc1c(Cl)c(O)c(Cl)c(O)c1C(=O)O[C@@H]1[C@@H](O)[C@@H](OC)[C@@H](OC/C2=C\C=C\CC(O)/C(C)=C/C(CC)C(O[C@@H]3OC(C)(C)[C@H]4OC(c5ccccc5Cl)O[C@@H]4[C@@H]3OC(=O)C(C)C)/C(C)=C/C(C)=C/CC(C(C)O)OC2=O)O[C@H]1C` (some centres unmarked) [TB4, 2-chlorobenzylidene acetal], the concentration for half-maximal inhibition (IC50) (commonly the concentration needed to halve the response being measured) in assay [1] was found to be 5.66 ± 0.62 µM; in assay [2], 5.69 ± 0.24 µM; with MCF7 breast cancer cells, 6.81 ± 0.01 µM.
As to `CCc1c(Cl)c(O)c(Cl)c(O)c1C(=O)O[C@@H]1[C@@H](O)[C@@H](OC)[C@@H](OC/C2=C\C=C\CC(O)/C(C)=C/C(CC)C(O[C@@H]3OC(C)(C)[C@H]4OC(c5cccc(OC)c5)O[C@@H]4[C@@H]3OC(=O)C(C)C)/C(C)=C/C(C)=C/CC(C(C)O)OC2=O)O[C@H]1C` (some centres unmarked) [TB3, 3-methoxylbenzylidene acetal], the values for the IC50 (in assay [1]; in assay [2]; in the assay on MCF7 breast cancer cells) were 4.99 ± 0.22 µM, 5.99 ± 0.45 µM and 7.09 ± 0.54 µM, respectively.
In the case of `CCc1c(Cl)c(O)c(Cl)c(O)c1C(=O)O[C@@H]1[C@@H](O)[C@@H](OC)[C@@H](OC/C2=C\C=C\CC(O)/C(C)=C/C(CC)C(O[C@@H]3OC(C)(C)[C@H]4OC(c5ccccc5C)O[C@@H]4[C@@H]3OC(=O)C(C)C)/C(C)=C/C(C)=C/CC(C(C)O)OC2=O)O[C@H]1C` (some centres unmarked) [TB1, 2-methylbenzylidene acetal], the IC50 in assay [1] worked out at 3.99 ± 0.58 µM; in assay [2], 5.88 ± 0.42 µM; with MCF7 breast cancer cells, 7.06 ± 0.83 µM.
As to `CCc1c(Cl)c(O)c(Cl)c(O)c1C(=O)O[C@@H]1[C@@H](O)[C@@H](OC)[C@@H](OC/C2=C\C=C\CC(O)/C(C)=C/C(CC)C(O[C@@H]3OC(C)(C)[C@H]4OC(c5cc(C(C)(C)C)c(O)c(C(C)(C)C)c5)O[C@@H]4[C@@H]3OC(=O)C(C)C)/C(C)=C/C(C)=C/CC(C(C)O)OC2=O)O[C@H]1C` (some centres unmarked) [TB8, 4,5-tert-dibutyl-4-hydroxybenzylidene acetal], the IC50 was found to be 4.04 ± 1.09 µM in assay [1], 5.76 ± 0.32 µM in assay [2] and 5.78 ± 0.81 µM with MCF7 breast cancer cells.
`CCc1c(Cl)c(O)c(Cl)c(O)c1C(=O)O[C@@H]1[C@@H](O)[C@@H](OC)[C@@H](OC/C2=C\C=C\CC(O)/C(C)=C/C(CC)C(O[C@@H]3OC(C)(C)[C@H]4OC(c5cccc(O)c5)O[C@@H]4[C@@H]3OC(=O)C(C)C)/C(C)=C/C(C)=C/CC(C(C)O)OC2=O)O[C@H]1C` (some centres unmarked) [TB2, 3-hydroxylbenzylidene acetal]: the IC50 in assay [1] was 4.24 ± 0.05 µM; in assay [2], 5.98 ± 0.22 µM; with MCF7 breast cancer cells it was 6.9 ± 0.36 µM. Also, the “IC50 value compared with tamoxifen, MCF7” value with MCF7 breast cancer cells (statement in words) was “superior to that of tamoxifen”.
For the compound `CCc1c(Cl)c(O)c(Cl)c(O)c1C(=O)O[C@@H]1[C@@H](O)[C@@H](OC)[C@@H](OC/C2=C\C=C\CC(O)/C(C)=C/C(CC)C(O[C@@H]3OC(C)(C)[C@H]4OC(c5ccc(N(CC)CC)cc5OC)O[C@@H]4[C@@H]3OC(=O)C(C)C)/C(C)=C/C(C)=C/CC(C(C)O)OC2=O)O[C@H]1C` (some centres unmarked) [TB7, 4-N,N-diethylamino-2-methoxybenzylidene acetal], the values for the IC50 (in assay [1]; in assay [2]; with MCF7 breast cancer cells) were 4.8 ± 0.46 µM, 5.3 ± 0.49 µM and 6.19 ± 0.68 µM, respectively.
For `CCc1c(Cl)c(O)c(Cl)c(O)c1C(=O)O[C@@H]1[C@@H](O)[C@@H](OC)[C@@H](OC/C2=C\C=C\CC(O)/C(C)=C/C(CC)C(O[C@@H]3OC(C)(C)[C@H]4OC(c5ccc(N(CC)CC)cc5)O[C@@H]4[C@@H]3OC(=O)C(C)C)/C(C)=C/C(C)=C/CC(C(C)O)OC2=O)O[C@H]1C` (some centres unmarked) [TB6, 4-N,N-diethylaminobenzylidene acetal], the results for the IC50 (in assay [1]; in assay [2]; with MCF7 breast cancer cells) were 4.77 ± 0.51 µM, 5.56 ± 0.13 µM and 5.98 ± 0.54 µM, respectively. In addition, the “IC50 value compared with tamoxifen, HeLa” value in assay [2] (statement in words) is “superior to that of tanoxifen”.
In the case of `CCc1c(Cl)c(O)c(Cl)c(O)c1C(=O)O[C@@H]1[C@@H](O)[C@@H](OC)[C@@H](OC/C2=C\C=C\CC(O)/C(C)=C/C(CC)C(O[C@@H]3OC(C)(C)[C@H]4OC(c5ccccc5C(F)(F)F)O[C@@H]4[C@@H]3OC(=O)C(C)C)/C(C)=C/C(C)=C/CC(C(C)O)OC2=O)O[C@H]1C` (some centres unmarked) [TB5, 2-trifluoromethylbenzylidene acetal], the concentration for half-maximal inhibition (IC50) came to 4.66 ± 0.57 µM in assay [1], 5.6 ± 0.37 µM in assay [2] and 5.95 ± 0.46 µM in the assay on MCF7 breast cancer cells.
On to “tiacumicin B [tiacumicin B (TB), reference compound]”, for which the figures for the IC50 (in assay [1]; in assay [2]; in the assay on MCF7 breast cancer cells) were 5.56 ± 0.57 µM, 8.54 ± 1.03 µM and 8.39 ± 1 µM, respectively.
